The text below walks through data of PubChem BioAssay (NCI).

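48-hour exposure; five concentrations; linearly interpolated endpoints. The concentration for 50% growth inhibition is given as GI50. TGI: total growth inhibition.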

Assay in all cases: growth of human tumour cells (NCI), 48 h
Experiment [1] concerns RXF 393 renal.
Experiment [2] relates to SK-OV-3 ovarian.
The test system of experiment [3] is CCRF-CEM leukemia.
In experiment [4] the test system is HT29 colon.
In experiment [5] the test system is M14 melanoma.
Experiment [6] concerns LOX IMVI melanoma.
Experiment [7] has as its system KM12 colon.
Experiment [8] relates to OVCAR-5 ovarian.
For experiment [9], the system named is RPMI-8226 leukemia.
The test system of experiment [10] is HCT-116 colon.

For the compound `O=C(CC(=O)C1CCOC1=O)C(=O)Nc1ccc(Cl)cc1Cl` (stereo unspecified), the TGI in experiment [1], in experiment [2], in [3], in [4], in experiment [5] and in [6] was over 100 µM each time. Further, the TGI in experiment [7], in experiment [8], in [9] and in experiment [10] was over 100 µM each time.

`CCCCCCCC(=O)SCC/C=C/[C@@H]1CC(=O)NCc2nc(co2)C2=N[C@@](C)(CS2)C(=O)N[C@@H](C(C)C)C(=O)O1`: the GI50 in experiment [1] is 0.0212 µM; in experiment [2] it was 0.0107 µM; in experiment [3], 0.0296 µM; in experiment [4], 0.0136 µM; in [5], 0.0205 µM; in [6], 0.0277 µM. Besides, the GI50 in experiment [7] is 0.0253 µM; in [8] it was 0.00849 µM; in experiment [9], 0.09 µM; in experiment [10], 0.0126 µM. For the same compound, the TGI in experiment [1] was 0.139 µM; in experiment [2], 0.101 µM; in experiment [3], over 50 µM; in experiment [4], 7.78 µM; in experiment [5] it was over 50 µM; in [6] it was 0.103 µM. Also, the TGI is 1.61 µM in experiment [7], over 50 µM in [8], over 50 µM in [9] and 1.14 µM in [10].

Turning to `CN(C)c1n/c(=N/c2ncn[nH]2)ss1`, the TGI in experiment [1], in experiment [2], in experiment [3], in experiment [4], in experiment [5] and in experiment [6] was over 100 µM in each case. Moreover, the TGI in [7], in experiment [8], in [9] and in experiment [10] was over 100 µM each time.

Turning to `O=C(NO)C(=O)Nc1ccc(Cl)cc1[N+](=O)[O-]`, the TGI in [1], in experiment [2], in experiment [3], in experiment [4], in experiment [5] and in experiment [6] was over 100 µM each time. Moreover, the TGI in experiment [7], in experiment [8], in experiment [9] and in experiment [10] was over 100 µM throughout.

For the compound `COC1=Nc2ccccc2S(=O)(=O)C=C1`, the TGI in [1] was 8.69 µM; in experiment [2] it was over 100 µM; in experiment [3], over 100 µM; in experiment [4], 26.7 µM; in experiment [5] it was 21.4 µM; in experiment [6] it was 10.9 µM. In addition, the TGI in experiment [7] stood at 28.4 µM; in experiment [8], 31.1 µM; in experiment [9], 4.81 µM; in [10] it was 3.46 µM. Further, in experiment [3], the GI50 is 2.85 µM.
